# Legend:
# three types of cells = conditions: cited from earlier work
# [1] = statement in abstract; no data in this paper; cited from earlier work
# HeLa cells = conditions: 100 nM nocodazole 16 h, 10 μM, 40 min; in contrast to interphase cells
substance,measurement,setting,value
polyarginine,reduction of cell-associated fluorescence by high potassium buffer,three types of cells,more than 90%
Acetyl-dC-dK-dR-dR-dR-dQ-dR-dR-dK-dK-dR-CONH2 [R.I.-CKTat9],proteolytic stability,[1],proteolytically stable
5(6)-Carboxyfluorescein-R.I.-CKTat9 [Flu-R.I.-CKTat9],cell surface-bound amount at 0 °C in KPBS versus PBS,HeLa cell surface,no difference
rhodamine-R.I.-CKTat9 [Rho-R.I.-CKTat9],uptake by HeLa cells arrested in M phase (microscopy),HeLa cells,did not take up

# — paper PMC2859821 (Molecular pharmaceutics, 2009)
